We go through one compound from patent US20060019922A1, “Selective killing of cancerous cells” (The University of North Carolina, priority 2004, published 2006).

One assay has as its system HEK 293T cells. The assay can be described thus: GCV sensitivity assay (luciferase or β-galactosidase activity as cell viability) in transfected HEK 293T cells. Format: cell-based. As to conditions: Homo sapiens, 96 h, four days of GCV. From the text:
FIG. 4 is a graphical representation of regulation of the response to GCV by constitutively expressed K2-5F. Cells (HEK 293T) were co-transfected with equal amounts of the following plasmids: pRL-2MDR-TKp-TK and pcDNA3.1A (Δ), pRL-2MDR-TKp-TK and pcK2-5F (◯), or pcDNA3.1A and PRL-TK (□). All cells were also co-transfected with a luciferase-expressing plasmid (FIG. 4A) or a β-galactosidase-expressing plasmid (FIG. 4B) as a marker. After twenty-four hours, cells in each well were re-plated evenly into six-well plates, and in another twenty four hours, GCV was administered in varying concentrations. Luciferase (FIG. 4A) or β-galactosidase (FIG. 4B) activities were measured after four days of treatment by GCV. Results are expressed as a percentage of the enzymatic activities at 0 GCV for each set of plasmids.
(§1) Cells were seeded in twelve-well plates and transfected as described above. […] After four days of treatment, cells were lysed, and luciferase activities or β-galactosidase activities were measured according to the manufacturer's protocol (Promega Corp., Madison, Wis., United States of America). Cell viability was estimated by luciferase activity or β-galactosidase activity, with results expressed as a percentage of the activity in the absence of GCV. […]

The subject of a further assay is HEK 293 cells. Kind of assay: GCV sensitivity assay (luciferase) in transfected HEK 293 cells. Format: cell-based, human. As to conditions: HEK 293 cells with TK, K2-5F and p53 vectors vs TK vector only or TK plus K2-5F vector.
Description: FIG. 6 is a graphical representation of regulation of the response to GCV by p53-induced K2-5F. Cells (HEK 293) were co-transfected with the following plasmids: pRL-2MDR-TKp-TK and pFR-2p21-K2-5F (Δ); pRL-2MDR-TKp-TK, pFR-2p21-K2-5F, and pCMV-P53-Myc (∇); or pRL-2MDR-TKp-TK and pcK2-5F (◯). The total DNA amount was adjusted by pcDNA3.1A and/or PRL-TK. A ratio of 1:20:1 between pRL-2MDR-TKp-TK, pFR-2p21-K2-5F, and pCMV-P53-Myc was used. (□) represents cells transfected with both control vectors. After twenty-four hours, cells in each well were replated uniformly into six-well plates, and after another twenty four hours, GCV was administered in varying concentrations. Luciferase activities were measured after four days of treatment with GCV. Results are expressed as a percentage of the luciferase activities at 0 GCV.
as §1

The next assay has as its system Saos-2/p53- cells. Kind of assay: Colony-formation assay with GCV in Saos-2/p53-negative cells. Format: cell-based, human. From the text:
(§2) FIGS. 9A and 9B depict regulation of the response to GCV by K2-5F induced by endogenous p53. Saos-2/p53-negative (FIG. 9A) and Saos-2/p53-positive (FIG. 9B) cells were co-transfected with plasmid pRL-2MDR-TKp-TK without (black bars) or with (gray bars) co-transfection of pFR-2p21-K2-5F. White bars represent cells transfected with empty vectors. All cells were also transfected with a β-galactosidase-expressing plasmid. After twenty-four hours, 600 cells were re-plated in 10-cm plates, and after another twenty-four hours, GCV was administered in varying concentrations. After ten days, surviving blue colonies larger than 50 cells were counted. Survival was expressed as a percentage of colonies formed at 0 GCV. […] The x-axis indicates the concentration of GCV in micromoles. The y-axis indicates the percentage of cell survival compared with cells not treated with GCV.
(§3) Cells were transfected with the plasmids indicated, along with a β-galactosidase-expressing plasmid to mark the transfected cells. […] After 10 days, surviving blue (β-galactosidase-positive) colonies larger than 50 cells were counted. Survival was expressed as a percentage of colonies formed at 0 GCV.
(§4) The pharmacological effect of K2-5F induced by endogenous p53 in stably transfected Saos-2 cells was investigated. […] The cells were then treated with GCV, and cell viability was evaluated with the use of a colony-formation assay. […]

Another assay deals with Saos-2/p53+ cells. The assay can be described thus: Colony-formation assay with GCV in Saos-2/p53-positive cells. Format: cell-based, human. The following applies: Saos 2/p53-positive cells co-transfected with pRL-2MDR-TKp-TK; especially at higher GCV concentrations.
Description: as §2, §3, §4

What is called IC50 is the point on the concentration scale where inhibition reaches its midpoint. For `Nc1nc(O)c2ncn(COC(CO)CO)c2n1` [GCV, ganciclovir], the IC50 is about 10 µM with HEK 293T cells (HEK 293T cells transfected with both pRL-2MDR-TKp-TK and pcK2-5F); about 0.2 µM in the assay with HEK 293T cells (HEK 293T cells transfected with pRL-2MDR-TKp-TK alone). Further, the “right shift of the dose-response profile” value in the assay on HEK 293 cells is “approximately 1 log”. Moreover, the “effect of K2-5F-expressing plasmid on the dose-survival curve for GCV” value in the assay with Saos-2/p53- cells (Saos2/p53-negative cells co-transfected with pRL-2MDR-TKp-TK, colonies after 10 days) was “no effect”; in the assay on Saos-2/p53+ cells, “substantial protective effect”. The “concentration of GCV required to attain toxicity” value in the assay on Saos-2/p53- cells (Saos-2 cells compared with HEK 293 cells) is listed as “higher concentration”.
